Reference: patent EP0081924A1, “Topical compostions for lowering intraocular pressure” (ALCON LABORATORIES, INC., priority 1981, dated 1983)
Structures can show the parent of a compound that is named as a salt. Where two headings read alike, the source gives them in different places.

Assays:
Intraocular Pressure [1] = test: Normal Rabbit Model, IOP lowering after topical administration; assay type: in vivo, New Zealand albino rabbits; conditions: Oryctolagus cuniculus, read-out: (B) 50uL 1% topical Normal Rabbit %IOP
Protocol: To determine the IOP reduction efficacy of the anti-glaucoma drugs of the invention in normal albino rabbits the following was done.
New Zealand albino rabbits (12) were acclimatized in restraining boxes for thirty minutes. Alcaine/ saline (1:5) was applied to the rabbit eyes and baseline IOP in mm Hg pressure were measured using an Alcon Laboratory Applanation Phneumatonograph. Then thirty minutes later, the coded test substance versus a coded saline control was administered as a 50 ul drop to one eye, six animals in each group. The treatment effects were measured as a function of time. Mean IOP and mean change in IOP for each hourly reading was recorded.
The effect cited is a peak percentage effect versus the external control test group.

Intraocular Pressure [2] = test: Rhesus Monkey - Laser Model, IOP lowering after topical administration; assay type: in vivo, Rhesus monkeys; conditions: laser-induced ocular hypertension, peak effect, percentage change in the hypertensioned eye versus the same eye at the same hour the previous day
Protocol: A. Rhesus Monkey - Laser Model
Ocular hypertension was produced in adult Rhesus monkeys (4) via an argon laser photocoagulation of trabecular meshwork in the eye. The treated eye (only one is lasered) was allowed to heal and the IOP stabilized after about six weeks. Tests were performed by topical administration of one drop of a 0.5% solution of-the test agent to the Ketamine anesthetized Rhesus monkey's eye. The IOP charge was recorded by an Alcon Applanation Phneumatonograph. The peak effect was recorded as a percentage change in the hypertensioned eye versus the IOP value of the same eye recorded at the same hour the previous day.

[3] = 50uL 1% topical to one eye, peak percentage effect versus the external (saline) control group

Row | Compound | change in vivo at 1 % (Intraocular Pressure [1]; [3]) | (A) 50uL 0.5% topical Laser-Monkey %IOP (Intraocular Pressure [2]) | change in vivo at 1 % (Intraocular Pressure [1]; topical)
1 | Clc1cccc(Cl)c1N=C1NCCN1 [2,6-Dichloro-N-2-imidazolidinylidene-benezamine, reference compound] | -13.9% | -32.0% | –
2 | Nc1ccc(Cl)c(N=C2NCCN2)c1Cl [2,6-Dichloro-N^1-(2-imidazolidinylidene)-1,3-benzenediamine hydrochloride] | – | – | 0%
3 | Cl.Cl.Nc1cc(Cl)c(N=C2NCCN2)c(Cl)c1 [2,6-Dichloro-N^1-(2-imidazolidinylidene)-1,4-benzenediamine Dihydrochloride] | -1.3% | -21.0% | –
4 | CN(C)c1cc(Cl)c(N=C2NCCN2)c(Cl)c1 [2,6-Dichloro-N^1-(2-imidazolidinylidene)-N^4, N^4-dimethyl-1,4-benzenediamine Dihydrochloride] | – | – | -10.2%
5 | CCOC(=O)c1cc(Cl)c(N=C2NCCN2)c(Cl)c1 [3,5-Dichloro-4-(2-imidazolidinylideneamino)-benzoic acid ethyl ester] | -5.6% | – | –
6 | O=C(O)c1cc(Cl)c(N=C2NCCN2)c(Cl)c1 [3,5-Dichloro-4-(2-imidazolidinylideneamino)-benzoic acid] | -4.5% | – | –
7 | Cl.Oc1cc(Cl)c(N=C2NCCN2)c(Cl)c1 [3,5-Dichloro-4-(2-imidazolidinylideneamino)-phenol Hydrochloride] | – | -23.0% | -7.4%
8 | OCc1cc(Cl)c(N=C2NCCN2)c(Cl)c1 [3.5-Dichloro-4-(2-imidazolidinylideneamino)-benzenemethanol] | 0% | -17% | –
9 | N#Cc1cc(Cl)c(N=C2NCCN2)c(Cl)c1 [4-Cyano-2,6-dichloro-N-(2-imidazolidinylidene)-benzamine Hydrochloride] | -2.3% | – | –
10 | O=CNc1cc(Cl)c(N=C2NCCN2)c(Cl)c1 [N-[3,5-Dichloro-4-(2-imidazolidinylideneamino) -phenyl]-formamide Free Base] | -15.6% | -26.0% | –
11 | CC(=O)Nc1cc(Cl)c(N=C2NCCN2)c(Cl)c1.Cl [N-[3,5-Dichloro-4-(2-imidazolidinylideneamino)-phenyl]-acetamide Hydrochloride] | -19% | -4.0% | –
